This is an account of results in patent US12692232B2, “Indole carboxamide compound, preparation therefor and use thereof” (NANJING RUISHUNING MEDICAL TECHNOLOGY CO., LTD., priority 2021, dated 2026).

For the test, the target named is T1, TRPC6 channel (Homo sapiens, UniProt Q9Y210).
T1 sequence (Q9Y210 1-931): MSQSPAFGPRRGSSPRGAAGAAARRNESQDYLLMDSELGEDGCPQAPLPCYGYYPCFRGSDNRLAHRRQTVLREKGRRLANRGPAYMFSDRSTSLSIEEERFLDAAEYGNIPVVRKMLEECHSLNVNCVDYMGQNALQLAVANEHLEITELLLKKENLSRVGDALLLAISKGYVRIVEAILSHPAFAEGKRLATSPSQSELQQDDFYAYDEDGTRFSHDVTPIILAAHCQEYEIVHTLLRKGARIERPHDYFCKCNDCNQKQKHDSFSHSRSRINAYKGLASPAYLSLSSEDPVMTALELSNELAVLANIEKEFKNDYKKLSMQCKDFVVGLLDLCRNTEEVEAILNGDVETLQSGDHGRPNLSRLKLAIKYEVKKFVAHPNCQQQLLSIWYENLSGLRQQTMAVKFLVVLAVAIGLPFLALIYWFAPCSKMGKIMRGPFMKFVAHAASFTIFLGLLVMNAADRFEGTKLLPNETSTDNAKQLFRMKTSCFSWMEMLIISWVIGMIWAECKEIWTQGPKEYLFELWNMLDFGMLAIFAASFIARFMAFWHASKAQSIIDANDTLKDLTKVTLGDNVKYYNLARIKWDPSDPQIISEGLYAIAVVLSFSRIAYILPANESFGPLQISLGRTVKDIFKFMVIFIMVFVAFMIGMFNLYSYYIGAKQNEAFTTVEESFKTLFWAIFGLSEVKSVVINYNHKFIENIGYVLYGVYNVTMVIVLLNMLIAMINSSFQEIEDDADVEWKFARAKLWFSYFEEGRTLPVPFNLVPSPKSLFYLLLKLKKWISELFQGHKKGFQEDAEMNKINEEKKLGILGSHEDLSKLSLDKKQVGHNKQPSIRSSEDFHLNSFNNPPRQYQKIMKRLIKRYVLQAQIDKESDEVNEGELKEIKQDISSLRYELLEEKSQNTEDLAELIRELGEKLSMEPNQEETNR
The test is described as follows: In vitro binding to TRPC6 protein by microscale thermophoresis (MST). Also noted: fused on or other part: NT-647-NHS fluorescent dye label (chemical labelling for MST). On the procedure:
The binding ability of the compounds of the present invention (as exemplified by the compounds obtained in Examples 1 to 3) to the TRPC6 protein was determined using the microscale thermophoresis (MST) method. The method was as follows:
Preparation and labelling of protein solution: TRPC6 protein dry powder (Alomone Labs, Israel) was prepared into a protein mother solution at a concentration of 10 μM using PBS-Buffer, and 35 μL of the protein stock solution was taken to the Buffer exchange A column, and centrifuged to obtain the Tris-removed protein. 34 μL Labelling Buffer was added to the Tris-removed protein according to the instructions of the Protein Fluorescent Labelling Kit (model L001). After mixing well, 3 μL of NT-647-NHS fluorescent dye was added and thus obtained mixture was incubated for 20 minutes. The protein-dye mixture was transferred to the purification B column, 300 μL of PBS-Buffer was added, and the target protein, i.e. fluorescent labelled protein TRPC6, was collected by centrifugation (with a final concentration of about 2 μM). 180 μL of target protein was mixed with 1620 μL of PBS-Buffer, and then 9 μl of Tween-20 were added thereto. Thus the resulting mixture was mixed and then centrifuged to obtain the target protein solution.
Preparation of compound solutions: the compounds were prepared separately with DMSO to storage solutions with a concentration of 10 μM. 10 μL of each storage solution was placed in a […] EP tube, 90 μL of PBS was added thereto and the resulting mixture was thoroughly mixed to prepare 100 μL of working solution at a concentration of 1 μM for later use. Ligand gradient dilutions were made for a total of 16 concentrations, and 10 μL of 10% DMSO-Buffer was added to each of the 15 gradients except gradient 1, followed by the addition of 10 μL of ligand working solution to gradients 1 and 2, respectively. The liquid in tube 2 was mixed and then 10 μL therein was taken into tube 3, and dilution was carried out in this manner until tube 16. […]
`Cn1c(C(=O)NCCC(=O)O)cc2ccccc21` [3-[(1-methyl-1H-indole-2-carbonyl)amino]propionic acid, reference compound] returned a Kd of 29.78 ± 0.26 µM.
In the case of `CC(=O)OCCCNC(=O)c1c(C=O)c2ccccc2n1C` [compound 1-1, propyl 3-[(3-formyl-1-methyl-1H-indole-2-carbonyl)amino]acetate], binding was characterised by a dissociation constant (Kd) of 12 ± 3.61 µM.
The same measure for `Cn1c(C(=O)NCCCOC(=O)c2ccccc2)c(C=O)c2ccccc21` [compound 2-1]: 19 ± 3.15 µM.
